The values that follow come from patent US20220259202A1, “1-(4-(AMINOMETHYL)BENZYL)-2-BUTYL-2H-PYRAZOLO[3,4-C]QUINOLIN-4-AMINE DERIVATIVES AND RELATED COMPOUNDS AS TOLL-LIKE RECEPTOR (TLR) 7/8 AGONISTS, AS WELL AS ANTIBODY DRUG CONJUGATES THEREOF FOR USE IN CANCER THERAPY AND DIAGNOSIS” (SUTRO BIOPHARMA, INC., priority 2019, published 2022).

Experiment [1] deals with cyno PBMCs. Nature of the experiment: Compound-induced cytokine release (ELISA). Conditions: IL-6 and MCP-1 (FIG. 5A-5B); 48 hr. The class given is cell-based, cynomolgus monkey. As for the experimental part:
This example evaluates the ability of Compound 1 to induce cytokine release in human PBMCs, cyno PBMCs and mouse splenocytes. Compound A and resiquimod, above, were used as controls in the assays.
Human and cyno PBMCs, mouse splenocytes were isolated as described in previous example. On the day of the assay, 300k of PBMC or splenocytes in 50 μL of culture medium were seeded in 96-well cell culture plates. 50 μL of the test articles (formulated at 2× of starting concentration) were then added into the well. The cell mixtures were co-cultured in the presence of test articles and 10 μg/mL LPS-RS for 24 hrs (human PBMCs) or 48 hr (cyno PBMCs and mouse splenocytes). Released cytokines in cell culture medium were measured by ELISA.

Experiment [2] deals with human and mouse TLRs. Nature of the experiment: HEK293 SEAP reporter panel of human and mouse TLRs, specificity. The class given is cell-based. Conditions: 16 hrs. From the text:
In this example, the activity of the Compound 1 to stimulate different human and mouse TLR pathways was investigated on HEK293 cells transfected with inducible SEAP (secreted embryonic alkaline phosphatase) reporter genes and also expressing different human TLRs (TLR2, TLR3, TLR4, TLR5, TLR7, TLR8, TLRS) or mouse TLRs (TLR2, TLR3, TLR4, TLR5, TLR7, TLR8, TLR13). Compound A
(§1) HEK293 reporter cell lines were purchased from Invivogen and cell lines were maintained in manufacture recommended culture medium with required supplemental antibiotics. On the day of assay, the cells were harvested with Accutase and counted by the Vi-CELL Cell Viability Analyzers. Cells were re-suspended in HEK blue detection medium and a total of 10000 cells were seeded in each well of a 384-well flat bottom plate. […] Assay plates were cultured at 37° C. in a CO2 incubator for 16 hrs. HEK-Blue™ Detection medium changes to a purple/blue color in the presence of secreted SEAP, which can be detected by spectrophotometry at 620-655 nm. Data was fitted with non-linear regression analysis, using a log(inhibitor) vs. response-variable slope, 3-parameter fit with GraphPad Prism.

The target in experiment [3] is T1, human TLR7 (Homo sapiens, UniProt Q9NYK1).
T1 construct: host or cells: HEK293
T1 sequence (Q9NYK1 27-1049): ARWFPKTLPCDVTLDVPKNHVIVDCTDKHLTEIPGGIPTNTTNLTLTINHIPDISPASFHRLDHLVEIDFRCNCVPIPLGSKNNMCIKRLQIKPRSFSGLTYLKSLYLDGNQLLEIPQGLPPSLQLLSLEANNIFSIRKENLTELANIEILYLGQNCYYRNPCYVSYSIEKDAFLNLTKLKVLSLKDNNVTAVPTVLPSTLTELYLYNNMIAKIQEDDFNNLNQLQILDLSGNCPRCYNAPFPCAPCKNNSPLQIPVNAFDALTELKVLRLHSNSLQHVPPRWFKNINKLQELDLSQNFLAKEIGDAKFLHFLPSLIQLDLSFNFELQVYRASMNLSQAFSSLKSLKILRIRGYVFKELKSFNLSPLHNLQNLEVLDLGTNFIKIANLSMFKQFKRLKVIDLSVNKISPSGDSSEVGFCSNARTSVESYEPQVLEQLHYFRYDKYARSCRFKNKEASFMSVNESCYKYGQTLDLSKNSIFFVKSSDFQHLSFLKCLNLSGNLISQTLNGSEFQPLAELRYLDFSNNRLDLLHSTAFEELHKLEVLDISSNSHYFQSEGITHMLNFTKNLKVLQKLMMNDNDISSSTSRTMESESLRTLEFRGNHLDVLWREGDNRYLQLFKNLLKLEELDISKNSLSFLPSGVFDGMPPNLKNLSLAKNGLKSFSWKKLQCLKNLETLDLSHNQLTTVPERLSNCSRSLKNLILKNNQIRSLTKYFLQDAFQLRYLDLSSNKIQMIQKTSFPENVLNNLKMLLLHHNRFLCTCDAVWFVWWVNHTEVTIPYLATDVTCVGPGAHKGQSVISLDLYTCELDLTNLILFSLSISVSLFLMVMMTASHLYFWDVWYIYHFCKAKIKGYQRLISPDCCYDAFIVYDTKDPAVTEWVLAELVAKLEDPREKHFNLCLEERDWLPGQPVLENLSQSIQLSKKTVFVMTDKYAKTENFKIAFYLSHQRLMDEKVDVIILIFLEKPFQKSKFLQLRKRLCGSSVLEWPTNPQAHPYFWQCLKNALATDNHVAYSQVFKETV
In words: HEK293 SEAP reporter assay, other TLRs (Biological Example 3). The class given is cell-based. Conditions: 16 hrs, * = Estimated.
Description: In this example, the activity of the Compound 1 to stimulate different human and mouse TLR pathways was investigated on HEK293 cells transfected with inducible SEAP (secreted embryonic alkaline phosphatase) reporter genes and also expressing different human TLRs (TLR2, TLR3, TLR4, TLR5, TLR7, TLR8, TLRS) or mouse TLRs (TLR2, TLR3, TLR4, TLR5, TLR7, TLR8, TLR13).
as §1

The target in experiment [4] is T1, human TLR7. In words: HEK293 SEAP reporter assay, human TLR7 (Biological Example 1). The class given is cell-based. Conditions: HEK293-humanTLR7 reporter cells, 4 hrs; read-out: hTLR7 EC50. On the procedure:
In this example, the activity of the TLR7 agonists to activate human TLR7, hTLR7 (or human TLR8, hTLR8, or mouse TLR7, mTLR7) pathway was evaluated on HEK293 reporter cells transfected with human TLR7 (or mouse TLR7 or human TLR8) and an inducible SEAP (secreted embryonic alkaline phosphatase) reporter gene. The SEAP reporter gene is placed under the control of the IFN-β minimal promoter fused to five NF-κB and AP-1-binding sites. Stimulation with a TLR7 agonist activates NF-KB and AP-1 which induces the production of SEAP. Levels of SEAP was determined with HEK-Blue Detection medium.
HEK293-humanTLR7, HEK293-mouseTLR7 and HEK293-humanTLR8 reporter cell lines were purchased from Invivogen and cell lines were maintained in manufacture recommended culture medium with required supplemental antibiotics. On the day of assay, the cells were harvested with Accutase and counted by the Vi-CELL Cell Viability Analyzers. Cells were re-suspended in HEK blue detection medium and a total of 10000 cells were seeded in each well of a 384-well flat bottom plate. Serial dilutions of TLR7 agonists free drugs (1:3 serial dilution starting from 5 μM) was added into treatment wells. Assay plates were cultured at 37° C. in a CO2 incubator for […]. HEK-Blue™ Detection medium changes to a purple/blue color in the presence of secreted SEAP, which can be detected by spectrophotometry at 620-655 nm. […]
For orientation: In a reporter assay the amount or activity of a reporter protein is the signal.

Broadly, the EC50 is the concentration at which the effect is half-maximal. Consider `CCCCn1nc2c(N)nc3ccccc3c2c1Cc1ccc(CN)cc1` [Compound 1, 1-(4-(aminomethyl)benzyl)-2-butyl-2H-pyrazolo[3,4-c]quinolin-4-amine], for which the “cytokine release from cyno PBMCs” value in experiment [1] is on record as “stimulated strong”. Also, the “specificity among human and mouse TLRs” value in experiment [2] was “very specific to human and mouse TLR7 and human TLR8”. Also, the values for the EC50 in experiment [3] and in experiment [4] were 61.4 nM and 46.7 nM, respectively.
